Data from US20240208950A1, “COMPOSITIONS AND METHODS FOR TREATMENT OF CERVICAL AND OVARIAN CANCER” (SOUTH DAKOTA BOARD OF REGENTS, priority 2021, published 2024).

What was measured:
[1] = test system: EMT markers and MMPs in SiHa cells; experiment: Western blot for EMT markers and MMPs, SiHa; type: cell-based, human; settings: 24 hours
Experimental: In a further example, cell lysates and western blot analysis was conducted for EMT markers and MMPs. […] In this example, about 70% of confluent SiHa and CaSki were treated with ORM-Br ([…]) for 24 hours. Cell lysates were prepared, and western blot analysis were conducted for EMT markers and MMPs analysis. The effect of ORM-Br on protein levels of cell-cycle regulatory proteins (cyclin E1 and p27) in both CaSki and SiHa cell lines are shown.
The effect of Br-ORM on protein expression in cervical cancer cells were determined by Western blot analysis by using specific antibodies.
Epithelial mesenchymal transition (EMT) is the basic characteristic of cancer cells in which epithelial cells undergo morphologic and molecular changes that transform the cells to mesenchymal, highly metastatic (invasive and motile), and drug-resistant phenotypes. Thus, targeting EMT may reduce the invasive phenotypes of a cancer cell and have significant advantage to overcome drug resistance. It has been reported that β-catenin is involved in invasion and metastasis via inducing EMT in various tumor cells. The effect of Br-ORM treatment on various EMT markers in cervical cancer cells was evaluated. […] The effect of Br-ORM on expression of EMT markers in cervical cancer cells compared to untreated group by use of qPCR analysis was determined. […] Expression of E-cadherin in cervical cancer cells treated with Br-ORM (10 μM) for 18 hours was also determined by immunofluorescence and confocal microscopy. Images were captured under 60× magnification and representative images are presented (FIG. 14G).
FIG. 14. Br-ORM decreases migration, invasion and attenuates EMT in cervical cancer cells. Effect of Br-ORM on cell migration of cervical cancer cells as determined by agarose bead (FIG. 14A), scratch wound healing (FIG. 14B), and Boyden chamber assay (FIG. 14C). AB denotes agarose bead while MC denotes migratory cells. Arrows indicate the distance of cervical cancer (CaSki and SiHa) cells migration in control and Br-ORM treated groups (FIG. 14A(i)-(ii)). […] Closure of wound was determined and photographed using phase contrast microscopy. […] Bar graph represent the quantification of migrated CaSki cells of control and Br-ORM treated groups (FIG. 14C(ii)). […] Effect of Br-ORM treatment on invasion of CaSki cells as determined by a commercially available kit (BD Biosciences) as described in materials and methods. In brief, 24 hours post-treatment of Br-ORM, invaded cells were fixed, stained and counted. […] Bar graph represent the quantification of invaded CaSki cells of control and Br-ORM treated groups (FIG. 14D(ii)). […] Effect of Br-ORM on E-cadherin expression in cervical cancer cells as determined by confocal microscopy in control and Br-ORM treated cells after 18 hours.

[2] = test system: miR-200a in cervical cancer cells; experiment: qRT-PCR of miR-200a; type: cell-based, human; settings: qPCR, 24 hours
Experimental: RNA from cervical cancer cells was isolated using Qiagen kit and quantified using NanoDrop instrument 2000 (Thermo Scientific, Waltham, MA, USA). To analyze the expression of miR-200a in control and Br-ORM treated cells, 100 ng total RNA was reverse transcribed into cDNA using specific primers designed for miRNA analysis (Applied Biosystems, Foster City, CA, USA). The expression of this miRNAs was determined by qRT-PCR using the Taqman PCR master mixture and specific primers designed for detection of mature miRNAs (Applied Biosystems). The expression of miRNA was normalized with the expression of endogenous control, RNU6B.
Modulations of microRNAs are involved in cervical cancer development, progression and metastasis. It is reported that expression of β-catenin is directly regulated by miR-200a. Br-ORM targets β-catenin signaling, therefore, to further understand the underlying mechanisms, the expression of miR-200a following the Br-ORM treatment was evaluated.
FIG. 16. Effect of Br-ORM on HPV oncoproteins and tumor suppressor miR-200 in cervical cancer cells. […] Increase expression of tumor suppressor miR200a in cervical cancer cells treated with BR-ORM for 24 hours in comparison to non-treated controls was determined through real time PCR (FIG. 16A(v)-(vii)). […]

## COc1ccc2c(c1)OC(C)(C)C(c1ccc(Br)cc1)C2c1ccc(OCCN2CCCC2)cc1 (centres unmarked) [ORM-Br]
[1]
  EMT associated markers (N-cadherin, vimentin and snail) expression: inhibits the EMT associated markers
  expression of E-cadherin: induced the expression of E-cadherin
  expression of MMP2 and MMP9: inhibited the expression of MMP2 and MMP9
[1]; listed as Br-ORM
  EMT associated markers (N-cadherin, vimentin and snail) expression: marked inhibition
[2]
  expression of miR-200a: significant (P<0.05) increase
